From patent publication US5668133A, “Ophthalmic compositions comprising emedastine and methods for their use” (priority 1995, dated 1997)

Tests used:
[1] = test system: passive anaphylaxis in guinea pig conjunctiva; experiment: passive conjunctival anaphylaxis, i.v. antigen challenge; type: in vivo
Procedure: (§1) Male Dunkin Hartley Viral Antibody Free outbred guinea pigs (Charles River Labs, Portage, Mich.), weighing approximately 250-350 grams (6/group) were injected intravenously (i.v.) via the marginal ear vein with 1.0 mL of Evans Blue dye (1.0 mg/mL). Forty-five (45) minutes post dye injection, 20 μL of test compound or saline vehicle was applied topically to one eye of each experimental animal. Thirty minutes following topical drug application, the guinea pigs were anesthetized and challenged subconjunctivally with histamine (300 ng/10 μL). Responses were quantitated as described by Yanni et al. in Int. Arch. Allergy Immunol., 101:102-106 (1993). Response scores from the treated groups were then compared with scores obtained in the saline-treated group using Dunnett's t test (Dunnett C. W., "A multiple comparison procedure for comparing treatments with a control." J. Am. Stat. Assoc. 50:1096-1121(1955)). Regression analysis was used to determine relative potency (Bliss, C. and E. Gjorgy. In Vitamin Methods, Vol. 2, pp. 445-610, Academic Press, Inc., New York, 1951.).
Emedastine difumarate was evaluated for its ability to inhibit a passive conjunctival immediate hypersensitivity response following topical ocular administration.
Guinea pigs (5-8/group) were passively sensitized with anti-ovalbumin serum injected subconjunctivally in one eye. Twenty-four hours after passive sensitization, ovalbumin (OA) was administered either i.v. or topically to the eye.
The allergic response following i.v. antigen challenge was assessed as follows: thirty minutes prior to challenge, animals received 20 μL of emedastine difumarate or saline applied topically to the eye. Guinea pigs were then challenged i.v. via the marginal ear vein with 1.0 mL of a solution containing 100 μg of OA and 1 mg of Evans Blue dye. Responses were quantitated as previously described in Example 2.

[2] = test system: histamine-induced vascular permeability in guinea pig conjunctiva; experiment: histamine-induced vascular permeability in guinea pig conjunctiva, topical ocular pretreatment; type: in vivo, guinea pig (Male Dunkin Hartley); conditions: for Wheal Area × Intensity: 1 min pretreatment
Procedure: The topical ocular antihistaminic effect of emedastine difumarate was assessed in a model of histamine induced vascular permeability in guinea pig conjunctiva. The potency of emedastine difumarate in this model was then compared with those of reference antihistamines.
as §1, with “Thirty minutes following topical drug application, the guinea pigs were anesthetized and challenged subconjunctivally with histamine (300 ng/10 μL).” left out

[3] = i.v. antigen challenge, 30 min before challenge
[4] = topically 1 minute before histamine challenge

Compound: CCOCCn1c(N2CCCN(C)CC2)nc2ccccc21 [Emedastine Difumarate, 1-(2-ethoxyethyl)-2-(4-methyl-1-homopiperazinyl)-benzimidazole]
- reduction of the allergic response ([1]; 0.001% and 0.01% solutions, 30 minutes before i.v. antigen challenge): significant reductions of the allergic response
- % Change ([1]; i.v. antigen challenge, 0.0001 wt %, 30 min before challenge): -41%
- % Change ([1]; i.v. antigen challenge, 0.001 wt %, 30 min before challenge): -66%
- % Change ([1]; i.v. antigen challenge, 0.01 wt %, 30 min before challenge): -96%
- ED50 [1, 3]: 0.00022 wt %
- ED50 (text) [1, 3]: 0.00022%
- Wheal Area × Intensity ([2]; 0.0001 wt %, antazoline experiment (NaCl 285 ± 19)): 159 ± 31
- Wheal Area × Intensity ([2]; 0.0001 wt %, ketotifen/pheniramine experiment (NaCl 276 ± 10)): 159 ± 26
- Wheal Area × Intensity ([2]; 0.0001 wt %, pyrilamine experiment (NaCl 308 ± 20)): 166 ± 14
- Wheal Area × Intensity ([2]; 0.001 wt %, antazoline experiment (NaCl 285 ± 19)): 109 ± 14
- Wheal Area × Intensity ([2]; 0.001 wt %, ketotifen/pheniramine experiment (NaCl 276 ± 10)): 141 ± 38
- Wheal Area × Intensity ([2]; 0.001 wt %, pyrilamine experiment (NaCl 308 ± 20)): 104 ± 20
- Wheal Area × Intensity ([2]; 0.01 wt %, antazoline experiment (NaCl 285 ± 19)): 55 ± 12
- Wheal Area × Intensity ([2]; 0.01 wt %, ketotifen/pheniramine experiment (NaCl 276 ± 10)): 45 ± 18
- Wheal Area × Intensity ([2]; 0.01 wt %, levocabastine experiment (NaCl 336 ± 78)): 26 ± 27
- Wheal Area × Intensity ([2]; 0.01 wt %, pyrilamine experiment (NaCl 308 ± 20)): 57 ± 16
- ED50 (text) ([2]; 1 minute prior to histamine challenge): 0.0002%
- inhibition of the vascular permeability response ([2]; 1 minute, 30 minutes, 2, 4 or 8 hours prior to challenge): inhibited in concentration-dependent fashion
- Wheal Area × Intensity (X ± S.D.) ([2]; 30 min pretreatment, 0.000001 wt %, clemastine experiment (NaCl 350 ± 31)): 265 ± 35
- Wheal Area × Intensity (X ± S.D.) ([2]; 30 min pretreatment, 0.000006 wt %, ketotifen experiment (NaCl 214 ± 41)): 154 ± 62
- Wheal Area × Intensity (X ± S.D.) ([2]; 30 min pretreatment, 0.000006 wt %, pyrilamine experiment (NaCl 194 ± 41)): 136 ± 42
- Wheal Area × Intensity (X ± S.D.) ([2]; 30 min pretreatment, 0.00001 wt %, antazoline experiment (NaCl 287 ± 20)): 197 ± 57
- Wheal Area × Intensity (X ± S.D.) ([2]; 30 min pretreatment, 0.00001 wt %, brompheniramine experiment (NaCl 219 ± 20)): 191 ± 48
- Wheal Area × Intensity (X ± S.D.) ([2]; 30 min pretreatment, 0.00001 wt %, chlorpheniramine experiment (NaCl 217 ± 35)): 161 ± 68
- Wheal Area × Intensity (X ± S.D.) ([2]; 30 min pretreatment, 0.00001 wt %, clemastine experiment (NaCl 350 ± 31)): 165 ± 30
- Wheal Area × Intensity (X ± S.D.) ([2]; 30 min pretreatment, 0.00001 wt %, diphenhydramine experiment (NaCl 214 ± 34)): 163 ± 32
- Wheal Area × Intensity (X ± S.D.) ([2]; 30 min pretreatment, 0.00001 wt %, levocabastine/pheniramine experiment (NaCl 252 ± 30)): 191 ± 27
- Wheal Area × Intensity (X ± S.D.) ([2]; 30 min pretreatment, 0.00006 wt %, ketotifen experiment (NaCl 214 ± 41)): 91 ± 26
- Wheal Area × Intensity (X ± S.D.) ([2]; 30 min pretreatment, 0.00006 wt %, pyrilamine experiment (NaCl 194 ± 41)): 75 ± 22
- Wheal Area × Intensity (X ± S.D.) ([2]; 30 min pretreatment, 0.0001 wt %, antazoline experiment (NaCl 287 ± 20)): 65 ± 32
- Wheal Area × Intensity (X ± S.D.) ([2]; 30 min pretreatment, 0.0001 wt %, brompheniramine experiment (NaCl 219 ± 20)): 104 ± 47
- Wheal Area × Intensity (X ± S.D.) ([2]; 30 min pretreatment, 0.0001 wt %, chlorpheniramine experiment (NaCl 217 ± 35)): 112 ± 58
- Wheal Area × Intensity (X ± S.D.) ([2]; 30 min pretreatment, 0.0001 wt %, clemastine experiment (NaCl 350 ± 31)): 70 ± 27
- Wheal Area × Intensity (X ± S.D.) ([2]; 30 min pretreatment, 0.0001 wt %, diphenhydramine experiment (NaCl 214 ± 34)): 98 ± 22
- Wheal Area × Intensity (X ± S.D.) ([2]; 30 min pretreatment, 0.0001 wt %, levocabastine/pheniramine experiment (NaCl 252 ± 30)): 137 ± 24
- Wheal Area × Intensity (X ± S.D.) ([2]; 30 min pretreatment, 0.0006 wt %, ketotifen experiment (NaCl 214 ± 41)): 16 ± 14
- Wheal Area × Intensity (X ± S.D.) ([2]; 30 min pretreatment, 0.0006 wt %, pyrilamine experiment (NaCl 194 ± 41)): 6 ± 7
- Wheal Area × Intensity (X ± S.D.) ([2]; 30 min pretreatment, 0.001 wt %, antazoline experiment (NaCl 287 ± 20)): 4 ± 4
- Wheal Area × Intensity (X ± S.D.) ([2]; 30 min pretreatment, 0.001 wt %, brompheniramine experiment (NaCl 219 ± 20)): 8 ± 9
- Wheal Area × Intensity (X ± S.D.) ([2]; 30 min pretreatment, 0.001 wt %, chlorpheniramine experiment (NaCl 217 ± 35)): 18 ± 23
- Wheal Area × Intensity (X ± S.D.) ([2]; 30 min pretreatment, 0.001 wt %, clemastine experiment (NaCl 350 ± 31)): 6 ± 7
- Wheal Area × Intensity (X ± S.D.) ([2]; 30 min pretreatment, 0.001 wt %, diphenhydramine experiment (NaCl 214 ± 34)): 12 ± 19
- Wheal Area × Intensity (X ± S.D.) ([2]; 30 min pretreatment, 0.001 wt %, levocabastine/pheniramine experiment (NaCl 252 ± 30)): 7 ± 9
- Potency ([2]; 30 min pretreatment, relative to emedastine difumarate = 1.0, (95% Confidence limits)): 1.0
- potency compared to ketotifen ([2]; 30 minute treatment interval): equipotent
- times more potent than brompheniramine ([2]; 30 minute treatment interval): 7 times
- times more potent than chlorpheniramine ([2]; 30 minute treatment interval): 7 times
- times more potent than clemastine ([2]; 30 minute treatment interval): 10 times
- times more potent than diphenhydramine ([2]; 30 minute treatment interval): 3333 times
- times more potent than levocabastine ([2]; 30 minute treatment interval): 100 times
- times more potent than pyrilamine ([2]; 30 minute treatment interval): 10 times
- times more potent than pheniramine ([2]; 30 minute treatment interval, approximate, lack of parallelism): approximately 357 times
- ED50 (text) ([2]; 30 minutes prior to histamine challenge): 0.000035%
- ED50 (text) ([2]; 2 hours prior to histamine challenge): 0.0029%
- ED50 (text) ([2]; 4 hours prior to histamine challenge): 0.019%
- ED50 (text) ([2]; 8 hours prior to histamine challenge): 0.19%
- ED50 ([2]; pretreatment 1 min): 0.0002 wt %
- Percent Change ([2]; pretreatment 1 min, 0.0001 wt %): -44%
- Percent Change ([2]; pretreatment 1 min, 0.001 wt %): -62%
- Percent Change ([2]; pretreatment 1 min, 0.01 wt %): -81%
- ED50 ([2]; pretreatment 30 min): 0.000035 wt %
- Percent Change ([2]; pretreatment 30 min, 0.000006 wt %): -28%
- Percent Change ([2]; pretreatment 30 min, 0.00006 wt %): -58%
- Percent Change ([2]; pretreatment 30 min, 0.0006 wt %): -93%
- ED50 ([2]; pretreatment 2 hr): 0.0029 wt %
- Percent Change ([2]; pretreatment 2 hr, 0.001 wt %): -35%
- Percent Change ([2]; pretreatment 2 hr, 0.005 wt %): -53%
- Percent Change ([2]; pretreatment 2 hr, 0.01 wt %): -72%
- ED50 ([2]; pretreatment 4 hr): 0.019 wt %
- Percent Change ([2]; pretreatment 4 hr, 0.001 wt % (first line)): -9%
- Percent Change ([2]; pretreatment 4 hr, 0.1 wt %): -84%
- Percent Change ([2]; pretreatment 4 hr, 1.0 wt %): -95%
- ED50 ([2]; pretreatment 8 hr): 0.19 wt %
- Percent Change ([2]; pretreatment 8 hr, 0.01 wt %): -5%
- Percent Change ([2]; pretreatment 8 hr, 0.05 wt %): -33%
- Percent Change ([2]; pretreatment 8 hr, 0.1 wt %): -43%
- Percent Change ([2]; pretreatment 8 hr, 0.5 wt %): -66%
- Percent Change ([2]; pretreatment 8 hr, 1.0 wt %): -71%
- onset and duration of action ([2]; topical ocular administration): rapid onset and an acceptable duration of action
- times more potent than antazoline ([2]; topical, 0.5 h): ~5813 times
- potency compared to pyrilamine [2, 4]: approximately equipotent
- times more potent than antazoline [2, 4]: 17 times
- times more potent than ketotifen [2, 4]: 3 times
- times more potent than pheniramine [2, 4]: 8 times
